{
  "source": "the pKa sets of Baltruschat and Czodrowski (2020)",
  "note": "Where a SMILES comes first, the peptide text is derived from it.",
  "data": [
    {"conditions": "basic group", "values": [
      {"smiles": "Nn1cnnc1", "pKa": 2.53},
      {"smiles": "Cc1ccc(S(=O)(=O)N2CCNCC2)cc1", "pKa": 7.41},
      {"smiles": "CCc1ccnc2c1ccc1c(CC)ccnc12", "pKa": 5.6},
      {"smiles": "CN(C)c1ccc2c(c1)Sc1cc(N(C)C)ccc1N2", "pKa": 5.53},
      {"smiles": "CCNC(N)=O", "pKa": 1.19},
      {"smiles": "CCCCCCCCOCCN(C)C", "pKa": 8.87},
      {"smiles": "CN1CCc2cccc(c2)CCc2ccc1cc2", "pKa": 6.76},
      {"smiles": "O=C(NNc1ccc(Br)cc1)c1ccncc1", "pKa": 4.03},
      {"smiles": "Nc1ccc[nH+]c1", "pKa": -1.37},
      {"smiles": "C[NH+](C)CCCNc1c2ccccc2nc2cccc([N+](=O)[O-])c12", "pKa": 6.2},
      {"smiles": "COc1cc(C)nc(NN)n1", "pKa": 6.2},
      {"smiles": "CNc1ncnc2c1cnn2C", "pKa": 4.24},
      {"smiles": "C[NH+]1CCCC1c1ccc(Cl)nc1", "note": "(configuration not stated)", "pKa": -1.3},
      {"smiles": "CN(C)CCO", "pKa": 9.36},
      {"smiles": "CC(C)NCC(O)COc1ccccc1", "note": "(configuration not stated)", "pKa": 9.45},
      {"smiles": "[NH3+][C@@H](Cc1nc(I)[nH]c1I)C(=O)[O-]", "pKa": 2.72},
      {"smiles": "Cc1cnc2c(c1)c(C)cc1c(C)ccnc12", "pKa": 5.9},
      {"smiles": "Nc1n[nH]c(N)c1/N=N/c1ccccc1O", "pKa": 3.51},
      {"smiles": "NC(=S)C1([NH3+])CCCCC1", "pKa": -8.08},
      {"smiles": "Cc1n[nH]c2c(NCc3ccco3)ncnc12", "pKa": 4.84},
      {"smiles": "C[NH2+]CCCN", "pKa": 8.66},
      {"smiles": "Cc1ccccc1CN(C)C", "pKa": 8.71},
      {"smiles": "CCCN1C=CC(=CC=C2C=CC(=O)C=C2)C=C1", "pKa": 8.5},
      {"smiles": "O=C(O)c1cnccn1", "pKa": -0.7},
      {"smiles": "CC1CCCCC1=N", "note": "(configuration not stated)", "pKa": 9.38},
      {"smiles": "c1ccc(-c2cccnc2)nc1", "pKa": 4.42},
      {"smiles": "C=CCc1ccc2cccnc2c1O", "pKa": 4.52},
      {"smiles": "CCN(CC)CCCNc1c2ccccc2[nH+]c2ccccc12", "pKa": 8.53},
      {"smiles": "Cc1ccc(C)nc1", "pKa": 6.4},
      {"smiles": "CCCCCCCCCCCCCCN(CC(O)CC)CC(O)CC", "note": "(configuration not stated)", "pKa": 5.7},
      {"smiles": "CCN(C)N(CC)CC", "pKa": 7.3},
      {"smiles": "CCC(O)CN(CC(C)O)C(C)(C)C", "note": "(configuration not stated)", "pKa": 9.5},
      {"smiles": "C1CN2CC[C@@H]3OC[C@H]1[C@@H]32", "pKa": 9.44},
      {"smiles": "N[C@H]1CC(=O)NC1=O", "pKa": 9},
      {"smiles": "CNc1ccncn1", "pKa": 6.12},
      {"smiles": "CCCCCCCCCCN", "pKa": 10.6},
      {"smiles": "COc1ccc(/N=N/c2c(N)n[nH]c2N)cc1", "pKa": 3.39},
      {"smiles": "NCCC[n+]1ccc2c([N+](=O)[O-])cccc2c1", "pKa": 8.48},
      {"smiles": "CN(C)c1ccc(/N=N/c2ccncc2)cc1", "pKa": 5.8},
      {"smiles": "CC(C)CNCC(=O)c1ccc(O)cc1", "pKa": 7.74},
      {"smiles": "NCCCCN", "pKa": 10.6},
      {"smiles": "C1CCN(N2CCCCC2)CC1", "pKa": 7.09},
      {"smiles": "CNc1cnc2ccccc2n1", "pKa": 4.1},
      {"smiles": "C/C(N)=N/N(C)C", "pKa": 10},
      {"smiles": "CCOc1ccc2nccc([C@@H](O)[C@@H]3C[C@H]4CCN3C[C@@H]4CC)c2c1", "pKa": 8.5},
      {"smiles": "O=C([O-])C#CCN1CCOCC1", "pKa": 5.57},
      {"smiles": "NCCCNCCO", "pKa": 10.3},
      {"smiles": "CNCC(C)C[NH2+]C", "pKa": 8.29},
      {"smiles": "O/C(=C/c1ccncc1)c1ccccc1", "pKa": 6.21},
      {"smiles": "COc1ccc2[nH]cc(CC(C)N)c2c1", "note": "(configuration not stated)", "pKa": 10.3},
      {"smiles": "Nc1nnnn1Cc1ccccc1", "pKa": 1.44},
      {"smiles": "C[Si](C)(C)c1cccc(N)c1", "pKa": 4.64},
      {"smiles": "Cc1cc(C)[nH+]c([S-])n1", "pKa": 2.8},
      {"smiles": "c1ccc2cc(NCC[NH2+]c3ccc4ccccc4c3)ccc2c1", "pKa": 1.8},
      {"smiles": "CC(C)CN(C)C", "pKa": 9.91},
      {"smiles": "NC(=O)CCCCc1ccccn1", "pKa": 5.73},
      {"smiles": "CN(C)c1ncc(-c2ccccc2)s1", "pKa": 4.89},
      {"smiles": "CN1[C@@H](CC(=O)c2ccccc2)CCC[C@H]1C[C@@H](O)c1ccccc1", "pKa": 8},
      {"smiles": "c1ccc(Nc2ncnc3[nH]ncc23)cc1", "pKa": 3.92},
      {"smiles": "CCOC(=O)Cc1ccccn1", "pKa": 4.25},
      {"smiles": "Nc1cccc([NH3+])c1O", "pKa": 2.7},
      {"smiles": "Cc1nc(C(=O)[O-])cs1", "pKa": 3.9},
      {"smiles": "NC(=O)CCc1ccccn1", "pKa": 5.09},
      {"smiles": "COc1ccc2ccc(OC)c(N3CCOCC3)c2c1N1CCOCC1", "pKa": 13},
      {"smiles": "CN(C)c1cccc2c(S(N)(=O)=O)cccc12", "pKa": 3.8},
      {"smiles": "CNCCC#N", "pKa": 8.1},
      {"smiles": "COc1cc2c(cc1OC)[C@]13CCN4CC5=CCO[C@H]6CC(=O)N2[C@H]1C6[C@@]5(S(=O)(=O)[O-])C[C@H]43", "note": "(some centres not stated)", "pKa": 7.45},
      {"smiles": "CCN(CC)CC(=O)Nc1ccc(C)cc1", "pKa": 8.13},
      {"smiles": "CC(=O)N1CCNc2ncnc(C)c21", "pKa": 5.26},
      {"smiles": "Cc1cc2nccc(NCCC[NH+](C)C)c2cc1[N+](=O)[O-]", "pKa": 7.38},
      {"smiles": "NC(=O)C[C@H](NC(=O)[C@@H](N)CS)C(=O)O", "note": "(H-Cys-Asn-OH)", "pKa": 7.05},
      {"smiles": "C[NH+](C)CCNCCN", "pKa": 9.12},
      {"smiles": "Cc1cc(-c2cc(C)n[nH]2)[nH]n1", "pKa": 2.8},
      {"smiles": "[O-]c1ccnnc1", "pKa": 8.68},
      {"smiles": "Cc1nc2ncncc2[nH]1", "pKa": 2.85},
      {"smiles": "Cn1c(=O)n(C)c2c(N)cccc21", "pKa": 3.06},
      {"smiles": "CCOCCn1c(CN2CCCN(CCCCn3cccn3)CC2)nc2ccccc21", "pKa": 9.2},
      {"smiles": "COc1cccnn1", "pKa": 2.52},
      {"smiles": "c1ccc(Cc2cc(-c3ccccc3)nnc2NCCN2CCOCC2)cc1", "pKa": 6.95},
      {"smiles": "N[C@@H](Cc1c[nH]cn1)C(=O)N[C@@H](Cc1c[nH]cn1)C(=O)[O-]", "pKa": 7.8},
      {"smiles": "COCc1cccc(COC)n1", "pKa": 3.43},
      {"smiles": "Cc1nc2cccc(N)c2n1C", "pKa": 6.66},
      {"smiles": "CN(CCC#N)CCC#N", "pKa": 4.24},
      {"smiles": "COc1ccc(/N=N/c2ccncc2)cc1", "pKa": 4.53},
      {"smiles": "CCCCCCCCCCCCN(CC(O)CC)CC(O)CC", "note": "(configuration not stated)", "pKa": 5.6},
      {"smiles": "[O-]c1nccc2nccnc12", "pKa": 11.1},
      {"smiles": "COc1cc2c(OC)ncnc2c(OC)c1OC", "pKa": 3.34}
    ]}
  ]
}
